Read-outs that look alike come from different tables or passages of the source.

Series [1] in a line: UV-vis absorption, extinction coefficient at 660 nm. The series is classed as physicochemical. As to conditions: 2 × 10^–6 M in THF. Here is the method: In our study, the Lambert–Beer law indicating a linear relationship between absorbance and concentrations was obeyed for all porphyrin and phthalocyanine compounds in dimethylsulfoxide (DMSO) in the whole 2–8 μM concentration measurement range (Figure 2). The UV–vis spectra of macrocyclic compounds were recorded in both DMSO and tetrahydrofuran (THF), solvents in which all compounds are soluble (Figures S13–S19). […] This diverse absorption behavior of complexes comes from their different subunits which are isoindoles and pyrroles in the skeleton of macrocycles for phthalocyanine and porphyrin, respectively.[40],[41]Table 1 summarizes the wavelengths and associated extinction coefficients in Q and Soret (B) bands in DMSO.

A short description of series [2]: Fluorescence quantum yield, comparative method. The series is classed as physicochemical. The settings on record: THF. Here is the method: Excitation spectra in the Q-band region have been obtained by monitoring the fluorescence emission spectra at the indicated wavelength of porphyrins and phthalocyanine compounds. The fluorescence quantum yields (ΦF) of all structures were determined in THF, using a comparative method. The values were 0.009, 0.14, 0.13, and 0.13, for LuPcPox(OAc), AB3TPP-Pc, AB3TPP-Por-C4, and AB3TPP-Por-C6, respectively. The lowest ΦF value 0.009 belongs to LuPcPox(OAc) and is close to the value (0.004) obtained in DMSO in our previous study.[24] This could be the result of the higher atomic number of lutetium in the cavity of phthalocyanine which may facilitate intersystem crossing to its excited triplet state after excitation. However, the difference and purpose of this study from our previous work are to examine whether there will be a change in the fluorescence property with the addition of the mitochondria targeting the TPP group to the structure. We achieved this goal. The ΦF value of AB3TPP-Pc was 0.14, although it was lower than the reference molecule (ZnPc ΦF= 0.25),[43] and the presence of the TPP group on the structure increased the fluorescence efficiency approximately 15 times that of LuPcPox(OAc) ΦF = 0.009. […] The normalized absorption, excitation, and emission spectra for all compounds are shown in Figure 3, and ΦF values are given in Table 2.

Series [3] in a line: Singlet-oxygen quantum yield, direct method (phosphorescence). The series is classed as physicochemical. The settings on record: for ΦΔ singlet-oxygen quantum yield: THF. Here is the method: For PDT, tumor cells are killed by ROS that is produced by a photosensitizer; thus, the production of ^1O2 by the photosensitizer plays a vitally important role in PDT.[46] To evaluate the photosensitizing properties of novel macrocyclic structures, singlet-oxygen quantum yields have been evaluated by a direct method in THF. Singlet-oxygen phosphorescence spectra for all compounds excited with a xenon-arc source at their respective absorption maxima were recorded by a near-IR-sensitive detector. ZnPc and H2TPP were used as the standard for phthalocyanine and porphyrin derivatives that have singlet oxygen yields of 0.53[47] and 0.58[33],[34] in THF, respectively. Singlet-oxygen phosphorescence spectra of Pc and Por. derivatives in THF at equal absorbance (0.23) were obtained to directly determine ΦΔ (Figures S20 and S21). […] Apparently, AB3TPP-Pc is almost three times as efficient as LuPcPox(OAc) in producing singlet oxygen, matching well with our proposal that the TPP-conjugated phthalocyanine could serve as an ideal candidate for mitochondrial-targeted PDT reagent.

The subject of series [4] is BEAS-2B cells. The series can be described thus: MTT cell viability of BEAS-2B cells, dark and 660 nm light irradiation. The series is classed as cell-based. Here is the method:
(§1) A549 and BEAS-2B cells were obtained from ATCC with reference numbers CCL-185 and CRL-9609, respectively. A549 cells were cultured in DMEM (with 2 mM L-glutamine, Gibco, United States), while RPMI 1640 (with 2 mM L-glutamine, Gibco, United States) was used for BEAS-2B cells. Both media were supplemented with 10% fetal bovine serum (FBS) (Gibco, United States), and cells were cultured in an incubator with a humidified atmosphere of 5% CO2 at 37 °C.[24]
(§2) For the evaluation of cytotoxic activity, an MTT assay was employed. Cells were seeded 1 day prior to treatment in 96-well plates at a concentration of 20,000 cells/mL. Followed by overnight incubation, the cells were exposed to LuPcPox(OAc), AB3TPP-Pc, AB3TPP-Por-C4, PP-Por-C6, H2TPP, and ZnPc molecules. All molecules were dispersed in DMSO. The working concentrations of the molecules contain <0.1% (v/v) of DMSO. Time-point assays were performed after 24 and 48 h. The final concentration of MTT was 0.5 mg/mL, and after 3 h incubation, absorbances were measured at 545 nm. The absorbance of the blank group which was the samples containing media with 10% FBS was subtracted from the measurements and cell viability was determined by the following formula.[52] The control group was composed of nontreated cells. Cell viability (%) = (absorbance value of sample/absorbance value of control) × 100.
(§3) The cells seeded at a concentration of 20,000 cells/mL in the 96-well plates were irradiated at 660 nm using an LED light array producing a flux of 0.036 J cm^–2 s^–1 (0.036 W/cm^2). In order to determine the cytotoxic effects of Pcs under light, one group of each cell line was exposed to an LED array for 30 min at room temperature and then returned to the incubator, while another group was incubated in the dark.[24] The delivered red photons on the cells were measured by a calibrated PAR meter (Apogee SQ-520). The temperature of the chamber under continuous light flux was monitored synchronously for ensuring the stability of the conditions.[53]
(§4) The cells were seeded at a concentration of 20,000 cells/mL on 96-well plates and incubated for 24 h. The Pcs were added in 0.1, 2.5, 5, 10, 25, and 50 μM concentrations for evaluating the toxicity with/without light except for LuPcPox(OAc). The LuPcPox(OAc) was added into the wells as 0.01, 0.03, 0.09, 0.25, 0.50, and 1 μM concentration because a concentration over 1.0 μM kills the cells immediately. The Pcs in the cell media were discarded, and a fresh medium was added to the cells to remove noninternalized molecules. The viability of the cells was recorded for 24 and 48 h after the addition of Pcs. The cells were irradiated for 30 min.
(§5) IC50 values of the Pcs were determined by fitting the cell’s viability curve acquired from the spectroscopic data. All the values were obtained by using Origin Software (Figure 7).

Series [5] can be described thus: Fluorescence lifetime, TCSPC. The series is classed as physicochemical. As to conditions: THF, mono-exponential decay. On the procedure: Luminescence lifetime measurements were performed on a fluorescence spectroscopy Fluorolog-3 (HORIBA Jobin Yvon) system in the single-photon counting (TCSPC) mode. A NanoLED light source (HORIBA Jobin Yvon) of λmax 390 nm was used for 395 nm excitation. All measurements were carried out in 0.2 ab. solutions in THF at room temperature. […] AB3TPP-Pc and LuPcPox(OAc) show a biexponential decay. The short-lived species are due to component features τf of 2.54 ns (responsible for 35.78%) and τf of 2.14 ns (responsible for 32.47%) photons emitted by AB3TPP-Pc and LuPcPox(OAc), respectively. The longer lifetime has a τf of 4.77 ns (assume 64.22%) and 3.11 ns (assume 67.53%) of emission for AB3TPP-Pc and LuPcPox(OAc), respectively.

The subject of series [6] is A549 cells. Put plainly: MTT cell viability of A549 cells, dark and 660 nm light irradiation. As to conditions: for IC50: 24 h. Format: cell-based. On the procedure:
as §1, §2, §3, §4, §5

For series [7] the following is noted: reference substance; cited from earlier work.
The conditions of series [8]: THF, standard; cited from earlier work.
Setting [9] is: Homo sapiens, A549, light (660 nm, 30 min).
Setting [10] is: Homo sapiens, dark, 24 h, read-out: IC50.
The mark [11] stands for this setting: Homo sapiens, light (660 nm, 30 min), 24 h, read-out: IC50.

As for `COCCOCCOCCSc1cc2c(cc1SCCOCCOCCOC)-c1nc-2nc2[nH]c(nc3nc(nc4[nH]c(n1)c1cc(SCCOCCOCCOC)c(SCCOCCOCCOC)cc41)-c1cc(SCCOCCOCCOC)c(SCCOCCOCCOC)cc1-3)c1cc(SCCCCCCOCCCCCC[P+](c3ccccc3)(c3ccccc3)c3ccccc3)ccc21` [AB3TPP-Pc], the “log ε (660 nm)” value in series [1] was 4.18. Further, in series [2], the “increase of fluorescence efficiency over LuPcPox(OAc)” value is “approximately 15 times” and the “ΦF fluorescence quantum yield” value is 0.14. In series [3], the “singlet oxygen-producing capacity compared to LuPcPox(OAc)” value is ~3 times; the “singlet oxygen-producing capacity, more efficient with respect to ZnPc” value was 50%; the “ΦΔ singlet-oxygen quantum yield” value is given as 0.75. The cytotoxic concentration in series [4] (dark, 24 and 48 h) is < 6 µM. In addition, the IC50 in series [4] (light, 48 h, read-out: IC50 (cytotoxic concentration)) was found to be 2.4 µM.

Consider `COc1ccc(-c2c3nc(c(-c4ccc(OC)cc4)c4ccc([nH]4)c(-c4ccc(OCCCC[P+](c5ccccc5)(c5ccccc5)c5ccccc5)cc4)c4nc(c(-c5ccc(OC)cc5)c5ccc2[nH]5)C=C4)C=C3)cc1` [AB3TPP-Por-C4], for which the “log ε (660 nm)” value in series [1] was found to be 3.43. For the same compound, the τF fluorescence lifetime in series [5] was 8.87 ns. The “ΦF fluorescence quantum yield” value in series [2] was 0.13. Further, the “ΦΔ singlet-oxygen quantum yield” value in series [3] turned out to be 0.57. Besides, the “increase of toxicity under light compared to the dark (from IC50)” value in series [6] (A549) is given as 2 fold. The “cytotoxicity (in words)” value in series [6] (A549, dark, up to 48 h) is “noncytotoxic”. The IC50 was > 50 µM in series [6] (Homo sapiens, A549, dark); 10.3 µM in series [6] (setting [9]); 11.5 µM in series [4] (setting [10]); < 0.1 µM in series [4] (setting [11]).

`COc1ccc(-c2c3nc(c(-c4ccc(OC)cc4)c4ccc([nH]4)c(-c4ccc(OCCCCCC[P+](c5ccccc5)(c5ccccc5)c5ccccc5)cc4)c4nc(c(-c5ccc(OC)cc5)c5ccc2[nH]5)C=C4)C=C3)cc1` [AB3TPP-Por-C6]: in series [1], the “log ε (660 nm)” value was 3.56. In series [5], this compound showed a τF fluorescence lifetime of 8.91 ns. The “ΦF fluorescence quantum yield” value in series [2] is on record as 0.13. In addition, in series [3], the “ΦΔ singlet-oxygen quantum yield” value came out at 0.58. The “reduction of cell viability compared to AB3Por-C4 (phototoxicity)” value in series [6] (A549) was 2 fold. For the same compound, in series [6] (A549), the “reduction of cell viability compared to H2TPP (phototoxicity)” value is on record as 5 fold. In addition, the “critical concentration (decrease in viability)” value in series [6] (A549, after light irradiation, 24 and 48 h) turned out to be 2.5 µM. In addition, the IC50 in series [6] (Homo sapiens, A549, dark) is 24.9 µM; in series [6] (setting [9]), 3.6 µM; in series [4] (setting [10]), 10.3 µM; in series [4] (setting [11]), < 0.1 µM.

Compound `[Zn+2].c1ccc2c(c1)-c1nc-2nc2[n-]c(nc3nc([n-]c4nc(n1)-c1ccccc1-4)-c1ccccc1-3)c1ccccc21` [ZnPc, zinc (II)phthalocyanine, reference compound] gave a τF fluorescence lifetime in series [5] of 2.72 ns.

With “Tetraphenylporphyrin [H2TPP, reference compound]”, the “ΦF fluorescence quantum yield” value in series [7] and in series [2] was 0.13 in each case. The “ΦΔ singlet-oxygen quantum yield” value in series [8] and in series [3] was 0.58 throughout. The τF fluorescence lifetime in series [5] stood at 10.3 ns. Also, the IC50 was determined as 19.7 µM in series [6] (A549, dark); 19.7 µM in series [6] (A549, light (660 nm, 30 min)); 12.1 µM in series [4] (dark, 24 h, read-out: IC50); 6.8 µM in series [4] (light (660 nm, 30 min), 24 h, read-out: IC50).
